In paper PMC5846726, “Characterization of the Mel1c melatoninergic receptor in platypus (Ornithorhynchus anatinus)” (PLoS ONE, 2018):
Like-named read-outs stand apart in the source and are kept apart here.

How the values were obtained:
hMT1 = hMT1 (Homo sapiens, UniProt P48039); assay: 2-[125I]-iodomelatonin competition binding, human MT1; set-up: hMT1: unit not given here
Experimental: (§1) This approach has been described very often by our laboratory and others. […] The results were expressed as Ki, taking into account the concentration of radioligand used in each experiment. […] The reaction was stopped by rapid filtration through GF/B Unifilters, followed by three successive washes with ice-cold buffer. Data were analyzed by using the program PRISM (GraphPad Software Inc., San Diego, CA). For saturation assays, the density of binding sites (Bmax) and the dissociation constant of the radioligand (KD) were calculated according to the Scatchard method. […] A similar protocol was used when the binding was performed on whole cells, as described by Legros et al.. As per Plos One policy, all the raw data–listings from radioactivity counter are attached as raw files (Supplementary Tables A to M in S1 Data).

Xenopus Mel1C = target: T1, Xenopus Mel1C (Xenopus laevis, UniProt P49219); assay: 2-[125I]-iodomelatonin competition binding, membranes from stably transfected CHO cells, Xenopus Mel1c; conditions: radioligand 2-[125I]-iodomelatonin
T1 construct: expressed in transfected cells
T1 sequence (P49219 1-420): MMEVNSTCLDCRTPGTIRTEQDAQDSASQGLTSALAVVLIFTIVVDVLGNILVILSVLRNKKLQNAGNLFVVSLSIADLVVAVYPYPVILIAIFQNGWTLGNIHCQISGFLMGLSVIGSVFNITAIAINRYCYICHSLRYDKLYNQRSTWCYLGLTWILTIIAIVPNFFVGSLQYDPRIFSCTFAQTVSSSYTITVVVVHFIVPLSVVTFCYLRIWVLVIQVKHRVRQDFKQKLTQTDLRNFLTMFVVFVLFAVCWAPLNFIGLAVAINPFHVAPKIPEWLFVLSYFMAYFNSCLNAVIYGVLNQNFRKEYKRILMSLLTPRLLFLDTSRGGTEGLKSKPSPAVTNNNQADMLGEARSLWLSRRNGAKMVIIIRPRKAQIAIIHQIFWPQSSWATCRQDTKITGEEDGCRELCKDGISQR
Experimental: (§2) CHO-Flp-In cells (Thermo Fisher Scientific, Waltham, USA) were cultivated in the presence of zeocin (0.1 mg/ml). The cells were cotransfected with either platypus (cloned sequence that will be submitted to GenBank) Mel1c/pcDNA5-FRT (platypus Mel1c) or X. laevis (NM 001087919.1) Mel1c/pcDNA5-FRT (clawed frog Mel1c) and Flp recombinase expression pOG44 plasmid using PEIpro (Invitrogen, Carlsbad, CA). CHO cells stably expressing platypus Mel1c or clawed frog Mel1c were selected using hygromycin (0.6 mg/ml). CHO-Flp-In-platypus Mel1c cells were grown in HAM F12 with 2 mM glutamine and supplemented with 10% fetal calf serum. Cells were selected using antibiotic pressure (hygromycin) for 72 h. […] After confirmation of the presence of the transgene, the cells were amplified up to 2 x 10^9 cells. This material was used to prepare the cell membranes used in further pharmacological experiments.
(§3) This standard procedure was described in a previous experiment with CHO cells expressing the sheep MT2 receptor [23]. […] The resulting pellet was suspended in 5 mM Tris/HCl (pH 7.4) containing 2 mM EDTA and homogenized using a Kinematica polytron. The homogenate was then centrifuged (20,000g, 30 min, 4°C) and the resulting pellet suspended in 75 mM Tris/HCl (pH 7.4) containing 2 mM EDTA and 12.5 mM MgCl2. The protein content was determined according to the method of Lowry et al. using the Bio-Rad kit (Bio-Rad SA, Ivry-sur-Seine, France). Aliquots of membrane preparations were stored in binding buffer (50 mM Tris/HCl, pH 7.4 containing 5 mM MgCl2 and 1 mM EDTA) at –80°C until use.
as §1

Platypus Mel1C [1] = target: T2, Platypus Mel1C (Ornithorhynchus anatinus, UniProt A0A2P1K6N2); assay: 2-[125I]-iodomelatonin competition binding, membranes from stably transfected CHO cells, platypus Mel1c; conditions: membranes from stably transfected CHO cells, radioligand 2-[125I]-iodomelatonin; for Ki: read-out: Platypus Mel1C (converted)
Experimental: as §2, §3, §1

Platypus Mel1C [2] = target: T2, Platypus Mel1C; assay: 2-[125I]-iodomelatonin competition binding, transiently transfected COS7 cells, platypus Mel1c; conditions: COS7 cells transiently transfected with Mel1c gene; radioligand 2-[125I]-iodomelatonin; two transfections, triplicate
Experimental: (§4) COS7 cells obtained from the American Type Culture Collection were maintained in DMEM GlutaMAX (Thermo Fisher Scientific, Waltham, USA) supplemented with 10% (v/v) fetal calf serum. Nucleofection of COS7 cells was performed according to the manufacturer's instructions using the Nucleofector machine (Amaxa, Cologne, Germany). Adherent COS7 cells were washed in phosphate-buffered saline (PBS), trypsinized, and gently resuspended in V nucleofection solution to a final concentration of 7 × 10^6 cells/100 μl. Next, 5 μg of pCIneo/Mel1c vector was mixed with 100 μl of the COS7 cell suspension, transferred to a […] electroporation cuvette, and nucleofected using program A024 and an Amaxa Nucleofector apparatus. Just after the nucleofection, 500 μl of media supplemented with 20% (v/v) fetal calf serum was added to the cell suspension and cultured in a humidified 37°C, 5% CO2 incubator for 20 minutes. Fourteen million cells were transferred to a T225 flask containing 50 ml of media supplemented with 20% (v/v) fetal calf serum and cultured in a humidified 37°C, 5% CO2 incubator. Two days after transfection, the cells were harvested in PBS, pelleted, and stored at -80°C until use.
as §1
(§5) To obtain stable expression of the receptor for future studies, a preliminary step involving transient expression of the receptor was performed. The Mel1c receptors from the three species were expressed in transiently transfected COS7 cells. A limited number of compounds were tested in order to gain a preliminary perception of the characteristics of Mel1c from these species.

X. laevis Mel1c receptor = target: T3, X. laevis Mel1c receptor (Xenopus laevis, UniProt P49219); assay: 2-[125I]-iodomelatonin competition binding, transiently transfected COS7 cells, Xenopus Mel1c; conditions: COS7 cells transiently transfected with Mel1c gene, radioligand 2-[125I]-iodomelatonin, two transfections, triplicate; for Ki: read-out: pKi Xenopus laevis (converted)
T3 construct: expressed in transfected cells; host or cells: COS7 (transient nucleofection, pCIneo vector)
T3 sequence (P49219 1-354 isoform P49219-2): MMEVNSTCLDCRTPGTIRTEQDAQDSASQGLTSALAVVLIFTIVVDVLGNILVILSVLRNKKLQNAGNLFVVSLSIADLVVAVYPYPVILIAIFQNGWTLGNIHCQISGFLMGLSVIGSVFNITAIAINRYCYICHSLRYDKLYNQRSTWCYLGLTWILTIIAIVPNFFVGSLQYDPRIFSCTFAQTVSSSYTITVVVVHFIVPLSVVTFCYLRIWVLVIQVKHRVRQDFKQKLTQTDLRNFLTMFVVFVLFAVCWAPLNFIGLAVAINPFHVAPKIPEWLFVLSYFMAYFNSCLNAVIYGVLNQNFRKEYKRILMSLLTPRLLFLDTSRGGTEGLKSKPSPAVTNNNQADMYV
Experimental: as §4, §1, §5

G. gallus Mel1c receptor = target: T4, G. gallus Mel1c receptor (Gallus gallus, UniProt P49288); assay: 2-[125I]-iodomelatonin competition binding, transiently transfected COS7 cells, chicken Mel1c
T4 construct: expressed in transfected cells; host or cells: COS7 (transient nucleofection, pCIneo vector)
T4 sequence (P49288 1-346): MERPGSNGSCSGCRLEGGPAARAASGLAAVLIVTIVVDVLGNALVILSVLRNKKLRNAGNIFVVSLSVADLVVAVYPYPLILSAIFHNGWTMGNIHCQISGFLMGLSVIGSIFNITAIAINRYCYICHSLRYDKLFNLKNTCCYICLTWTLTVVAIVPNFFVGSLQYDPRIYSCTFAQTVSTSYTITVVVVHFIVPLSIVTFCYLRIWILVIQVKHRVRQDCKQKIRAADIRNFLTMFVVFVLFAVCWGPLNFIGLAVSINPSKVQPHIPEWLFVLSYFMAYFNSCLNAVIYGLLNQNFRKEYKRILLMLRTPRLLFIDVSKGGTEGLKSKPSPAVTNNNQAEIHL
Experimental: as §4, §1, §5

hMT2 = target: T5, hMT2 (Homo sapiens, UniProt P49286); assay: 2-[125I]-iodomelatonin competition binding, human MT2
T5 sequence (P49286 1-362): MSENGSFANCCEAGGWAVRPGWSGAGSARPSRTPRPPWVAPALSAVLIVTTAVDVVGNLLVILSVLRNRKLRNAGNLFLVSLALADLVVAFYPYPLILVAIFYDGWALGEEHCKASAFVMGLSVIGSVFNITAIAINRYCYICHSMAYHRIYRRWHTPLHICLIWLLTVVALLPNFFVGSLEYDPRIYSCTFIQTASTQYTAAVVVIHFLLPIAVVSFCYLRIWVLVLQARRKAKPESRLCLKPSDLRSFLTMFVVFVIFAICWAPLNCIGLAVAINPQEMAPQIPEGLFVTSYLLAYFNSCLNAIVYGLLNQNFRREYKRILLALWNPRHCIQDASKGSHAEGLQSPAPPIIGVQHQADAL
Experimental: as §1

[3] = membranes from stably transfected CHO cells, radioligand 2-[125I]-iodomelatonin, read-out: hMT1 (converted)
[4] = COS7 cells transiently transfected with Mel1c gene, radioligand 2-[125I]-iodomelatonin, two transfections, triplicate
[5] = membranes from stably transfected CHO cells, radioligand 2-[125I]-iodomelatonin
[6] = membranes from stably transfected CHO cells, radioligand 2-[125I]-iodomelatonin, read-out: hMT2 (converted)

T2 sequence (A0A2P1K6N2 1-349): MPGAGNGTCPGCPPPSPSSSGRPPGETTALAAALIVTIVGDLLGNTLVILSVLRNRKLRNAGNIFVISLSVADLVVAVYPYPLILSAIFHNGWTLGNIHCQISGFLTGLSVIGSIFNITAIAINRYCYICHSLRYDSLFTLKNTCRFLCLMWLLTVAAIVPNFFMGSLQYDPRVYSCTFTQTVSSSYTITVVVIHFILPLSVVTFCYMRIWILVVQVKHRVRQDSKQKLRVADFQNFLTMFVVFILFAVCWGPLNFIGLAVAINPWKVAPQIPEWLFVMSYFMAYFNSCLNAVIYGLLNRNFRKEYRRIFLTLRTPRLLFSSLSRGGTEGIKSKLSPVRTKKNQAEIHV
Sequence of hMT1 (P48039 whole entry): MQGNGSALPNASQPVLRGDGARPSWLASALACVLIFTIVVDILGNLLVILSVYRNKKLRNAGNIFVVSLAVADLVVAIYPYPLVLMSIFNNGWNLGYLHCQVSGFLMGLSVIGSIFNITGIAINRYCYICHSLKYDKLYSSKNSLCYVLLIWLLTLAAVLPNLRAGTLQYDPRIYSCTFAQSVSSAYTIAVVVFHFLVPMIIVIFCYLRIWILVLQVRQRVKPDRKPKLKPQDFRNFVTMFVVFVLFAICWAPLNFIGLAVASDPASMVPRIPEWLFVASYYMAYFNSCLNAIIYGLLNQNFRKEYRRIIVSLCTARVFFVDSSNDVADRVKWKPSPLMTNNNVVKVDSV

Row | Compound | Ki (hMT1; [3]) | Ki (Xenopus Mel1C) | Ki (Platypus Mel1C [1]) | pKi Ornithorhyncus anatinus (Platypus Mel1C [2]) | Ki (hMT2; [6]) | further results
1 | COc1cc2c(CCNC(C)=O)c(I)[nH]c2cc1[N+](=O)[O-] [S27128, N-[2-(2-iodo-5-methoxy-6-nitro-1H-indol-3-yl)ethyl]acetamide] | 0.00126 µM | 0.00251 µM | 0.001 µM | – | – | –
2 | COc1ccc2[nH]c(I)c(CCNC(C)=O)c2c1 [2-Iodomelatonin, 2-iodomelatonin] | – | – | – | 10.2 | – | pKi Xenopus laevis (X. laevis Mel1c receptor): 10.0; pKi Gallus gallus (G. gallus Mel1c receptor; [4]): 9.8
3 | 2-(2-[(2-iodo-4,5-dimethoxyphenyl)methyl]-4,5-dimethoxy phenyl [DIV880] | – | – | – | – | – | hMT1 (hMT1; [5]): 6.1; pKi (Xenopus Mel1C): 5.9; pKi (Platypus Mel1C [1]): 6.2; hMT2 (hMT2; [5]): 8.0
4 | COCC(CNC(C)=O)c1cccc2ccc(OC)cc12 (centres unmarked) [S73893, N-[3-methoxy-2-(7-methoxy-1-naphthyl)propyl]acetamide] | 0.00398 µM | 0.0398 µM | 0.02 µM | – | 0.00794 µM | –
5 | CCc1ccc2scc(CCNC(C)=O)c2c1 [S22153, N-[2-(5-ethylbenzothiophen-3-yl)ethyl]acetamide] | 0.00631 µM | 0.126 µM | 0.0501 µM | 7.6 | 0.01 µM | Ki (X. laevis Mel1c receptor): 0.1 µM; Ki (G. gallus Mel1c receptor; COS7 cells transiently transfected with Mel1c gene, radioligand 2-[125I]-iodomelatonin, two transfections, triplicate, read-out: pKi Gallus gallus (converted)): 0.2 µM
6 | COc1cc2c(CCNC(C)=O)c[nH]c2cc1I [6-Iodomelatonin, N-[2-(6-iodo-5-methoxy-1H-indol-3-yl)ethyl]acetamide] | 0.00158 µM | 0.00794 µM | 0.00398 µM | – | 0.00251 µM | –
7 | CC(=O)NCCc1c(Cc2ccccc2)[nH]c2ccccc12 [Luzindole, N-acetyl-2-benzyltryptamine] | – | 2.51 µM | 2.51 µM | 5.9 | 0.0251 µM | hMT1 (hMT1; [5]): 6.6; Ki (X. laevis Mel1c receptor): 2 µM; Ki (G. gallus Mel1c receptor): 3.98 µM
8 | COc1ccc2[nH]cc(CCNC(=O)CI)c2c1 [SD6, N-[2-(5-methoxy-1H-indol-3-yl)ethyl]iodoacetamide] | – | 0.000501 µM | 0.000398 µM | – | – | –
9 | (S)-N-(2-(1,6,7,8-tetrahydro-2H-indeno-(5,4)furan-8-yl)ethyl)propionamide [Ramelteon ®] | – | – | – | 10.1 | – | hMT1 (hMT1; [5]): 10.1; Xenopus Mel1C (Xenopus Mel1C): 9.9; Platypus Mel1C (Platypus Mel1C [1]): 9.9; pKi Xenopus laevis (X. laevis Mel1c receptor): 10.1; pKi Gallus gallus (G. gallus Mel1c receptor; [4]): 9.8
10 | COc1cc(I)c2[nH]cc(CCNC(C)=O)c2c1 [7-Iodomelatonin] | – | – | – | – | – | hMT1 (hMT1): 7.3; pKi (Xenopus Mel1C): 7.3; pKi (Platypus Mel1C [1]): 7.5; hMT2 (hMT2): 7.3
11 | O=C(NCCc1cccc2ccccc12)C1CCC1 [S20928, (N-[2-(1-naphthyl)ethyl]cyclobutanecarboxamide)] | 0.0794 µM | 1.26 µM | 0.794 µM | – | 0.0794 µM | –
12 | COc1ccc2[nH]c(-c3cccc4ccccc34)c(CCNC(=O)CI)c2n1 [S70254] | – | – | – | 6.6 | – | hMT1 (hMT1; [5]): 7.0; pKi (Xenopus Mel1C): 6.3; hMT2 (hMT2; [5]): 9.0; pKi Xenopus laevis (X. laevis Mel1c receptor): 6.8; pKi Gallus gallus (G. gallus Mel1c receptor; [4]): 6.6
13 | COc1ccc2ncn(CCNC(C)=O)c2c1 [S21278, N-[2-(6-methoxybenzimidazol-1-yl)ethyl]acetamide] | 0.631 µM | 1.58 µM | 2 µM | – | 0.631 µM | –
14 | COc1ccc2cccc(C(CO)CNC(=O)CF)c2c1 (centres unmarked) [S75436, 2-fluoro-N-[3-hydroxy-2-(7-methoxy-1-naphthyl)propyl]acetamide] | – | 0.0158 µM | 0.00631 µM | – | – | Ki (hMT1): 0.0126 µM; Ki (hMT2): 0.00126 µM
15 | COc1ccc2[nH]cc(CCNC(C)=O)c2c1I [4-Iodomelatonin, N-[2-(4-iodo-5-methoxy-1H-indol-3-yl)ethyl]acetamide] | 0.0158 µM | 0.251 µM | 0.1 µM | – | 0.0126 µM | –
16 | COc1ccc2cccc(CCNC(C)=O)c2c1 [Agomelatin ®, N-(2-(7-methoxynaphthalen-1-yl)ethyl)acetamide] | – | 0.000794 µM | 0.000398 µM | 9.6 | – | Ki (X. laevis Mel1c receptor): 0.000631 µM
17 | COc1ccc(CCN(C)CCCC(C#N)(c2cc(OC)c(OC)c(OC)c2)C(C)C)cc1OC (centres unmarked) [D600, methoxyverapamil] | 0.1 µM | 2 µM | 2 µM | – | > 10 µM | –
